Experiments:
[1] = tested on: Pseudomonas aeruginosa (Pa) ATCC 19429; assay: Challenge Test (artificial contamination) of cosmetic formula; conditions: 22° C., chlorhexidine digluconate 0.3%, gingerone 2%
[2] = tested on: Enterococcus faecalis (Ef) ATCC 33186; assay: as above; type: cell-based; conditions: 22° C., chlorhexidine digluconate 0.3%, gingerone 2%
Excerpt: (§1) 5 pure microorganism cultures are used.

[3] = tested on: Candida albicans (Ca) ATCC 10231; assay: as above; type: cell-based; conditions: 22° C., chlorhexidine digluconate 0.3%, gingerone 2%; for Log reduction number after 7 days of contact, relative to the control, Candida albicans: Amt weight %: sodium benzoate 0.6%
Excerpt: as §1

[4] = tested on: Escherichia coli (Ec) ATCC 8739; assay: as above; type: cell-based; conditions: 22° C., chlorhexidine digluconate 0.3%, gingerone 2%
Excerpt: as §1

[5] = tested on: Aspergillus niger (An) ATCC 6275; assay: as above; type: cell-based; conditions: 22° C., chlorhexidine digluconate 0.3%, gingerone 2%
Excerpt: as §1

bacteria and yeast = assay: Action kinetics, overall conclusion; type: cell-based; conditions: gingerone 2%; in particular on the bacteria
Experimental: (§2) The object of this example is to distinguish a compound according to the invention (gingerone) from the preserving agents conventionally used for protecting cosmetic formulations against microbial contamination, as regards the action kinetics.
(§3) The inoculated samples are then placed in an incubator-agitator at 35° C.±2° C. Samples are taken after 6 hours, 24 hours, 48 hours, 72 hours and 7 days. Decimal dilutions are then prepared in Eugon LT100 broth. These dilutions are left for 30 minutes±15 minutes at 25° C. in order to neutralize the preserving agents, and are then double-seeded on the surface of Petri dishes containing Eugon LT100 agar.

[6] = tested on: Enterococcus faecalis (ATCC 33186); assay: Action kinetics in broth; type: cell-based; conditions: TS broth pH 5.2±0.3, 35° C., gingerone 2%, sodium benzoate 3.3%, chlorhexidine digluconate 2.2%
Experimental: as §2
(§4) The solutions are prepared in Trypto-casein-soya (TS) broth for the bacteria and in Sabouraud broth for the yeast. These solutions are adjusted to pH 5.2±0.3.
(§5) For each microbial solution, a growth control consisting of the appropriate culture medium alone is prepared.
(§6) The solutions in TS broth (36 ml) are inoculated separately with each of the bacteria (4 ml of microbial suspension) to a final content of 10^6 cfu/ml of mixture.
as §3
(§7) The Petri dishes are then incubated in an oven at 35° C.±2° C. for a variable time depending on the strain concerned: • 48 hours; S. aureus; • 5 days: E. faecalis and C. albicans.
(§8) The results are expressed for each solution, each strain and each contact time as the number of cfu/ml of stock solution.

[7] = tested on: Staphylococcus aureus (ATCC 6538); assay: Action kinetics in broth; type: cell-based; conditions: TS broth pH 5.2±0.3, 35° C., gingerone 2%, sodium benzoate 3.3%, chlorhexidine digluconate 2.2%
Experimental: as §2, §4, §5, §6, §3, §7, §8

[8] = tested on: collection microbial strains (bacteria, yeasts and moulds); assay: Challenge Test, overall finding over strains and formulas; type: cell-based; conditions: three formulas, five strains, gingerone 2%
[9] = tested on: Candida albicans (ATCC 10231); assay: Action kinetics in broth; type: cell-based; conditions: Sabouraud broth pH 5.2±0.3, 35° C., gingerone 2%, sodium benzoate 3.3%, chlorhexidine digluconate 2.2%
Experimental: as §2, §4, §5
The solutions in Sabouraud broth (36 ml) are inoculated with the yeast (4 ml of suspension) to a final content of 10^6 cfu/ml.
as §3, §7, §8

[10] = 1st formula O/W emulsion, Amt weight %: phenoxyethanol 1%, sodium benzoate 0.6%
[11] = 2nd formula lotion (pH 7 ± 0.2), Amt weight %: sodium benzoate 0.6%, phenoxyethanol 1%
[12] = 3rd formula O/W emulsion, Amt weight %: sodium benzoate 0.6%

COc1cc(CCC(C)=O)ccc1O [Gingerone, gingerone]
Log reduction number after 7 days of contact, relative to the control, P. aeruginosa [1, 10]: >4 Log | Log reduction number after 7 days of contact, relative to the control, P. aeruginosa [1, 11]: >3 Log | Log reduction number after 7 days of contact, relative to the control, P. aeruginosa [1, 12]: >4 Log | Log reduction number after 7 days of contact, relative to the control, E. faecalis [2, 10]: >4 Log | Log reduction number after 7 days of contact, relative to the control, E. faecalis [2, 11]: >0.5 Log | Log reduction number after 7 days of contact, relative to the control, E. faecalis [2, 12]: >4 Log | Log reduction number after 7 days of contact, relative to the control, C. albicans [3, 10]: >4 Log | Log reduction number after 7 days of contact, relative to the control, Candida albicans ([3]; 2nd formula lotion (pH 7 ± 0.2), phenoxyethanol 1%): >3 Log | Log reduction number after 7 days of contact, relative to the control, Candida albicans ([3]; 3rd formula O/W emulsion): >4 Log | Log reduction number after 7 days of contact, relative to the control, E. coli [4, 10]: >4 Log | Log reduction number after 7 days of contact, relative to the control, E. coli [4, 11]: >4 Log | Log reduction number after 7 days of contact, relative to the control, E. coli [4, 12]: >4 Log | Log reduction number after 7 days of contact, relative to the control, A. niger [5, 10]: >4 Log | Log reduction number after 7 days of contact, relative to the control, A. niger [5, 11]: >4 Log | Log reduction number after 7 days of contact, relative to the control, A. niger [5, 12]: 0.6 Log | action kinetics in comparison with conventional preserving agents (bacteria and yeast): much more slowly | Number of cfu counted after strain/solution contact time, Enterococcus faecalis ([6]; contact time 0 hours): 2.5 × 10^6 cfu/ml | Number of cfu counted after strain/solution contact time, Enterococcus faecalis ([6]; contact time 6 hours): 4.4 × 10^5 cfu/ml | Number of cfu counted after strain/solution contact time, Enterococcus faecalis ([6]; contact time 24 hours): 1.2 × 10^4 cfu/ml | Number of cfu counted after strain/solution contact time, Enterococcus faecalis ([6]; contact time 48 hours): 6.3 × 10^2 cfu/ml | Number of cfu counted after strain/solution contact time, Enterococcus faecalis ([6]; contact time 72 hours): 80 cfu/ml | Number of cfu counted after strain/solution contact time, Enterococcus faecalis ([6]; contact time 168 hours): <10 cfu/ml | Number of cfu counted after strain/solution contact time, Staphylococcus aureus ([7]; contact time 0 hours, first series): 1.7 × 10^6 cfu/ml | Number of cfu counted after strain/solution contact time, Staphylococcus aureus ([7]; contact time 0 hours, second series of Table 1): 2.5 × 10^6 cfu/ml | Number of cfu counted after strain/solution contact time, Staphylococcus aureus ([7]; contact time 6 hours, first series): 1.2 × 10^6 cfu/ml | Number of cfu counted after strain/solution contact time, Staphylococcus aureus ([7]; contact time 6 hours, second series of Table 1): 1.2 × 10^6 cfu/ml | Number of cfu counted after strain/solution contact time, Staphylococcus aureus ([7]; contact time 24 hours, first series): 1.7 × 10^5 cfu/ml | Number of cfu counted after strain/solution contact time, Staphylococcus aureus ([7]; contact time 24 hours, second series of Table 1): 1.6 × 10^5 cfu/ml | Number of cfu counted after strain/solution contact time, Staphylococcus aureus ([7]; contact time 48 hours, first series): 8.1 × 10^3 cfu/ml | Number of cfu counted after strain/solution contact time, Staphylococcus aureus ([7]; contact time 48 hours, second series of Table 1): 9.6 × 10^3 cfu/ml | Number of cfu counted after strain/solution contact time, Staphylococcus aureus ([7]; contact time 72 hours, first series): 40 cfu/ml | Number of cfu counted after strain/solution contact time, Staphylococcus aureus ([7]; contact time 72 hours, second series of Table 1): 1.3 × 10^2 cfu/ml | Number of cfu counted after strain/solution contact time, Staphylococcus aureus ([7]; contact time 168 hours, first series): <100 cfu/ml | Number of cfu counted after strain/solution contact time, Staphylococcus aureus ([7]; contact time 168 hours, second series of Table 1): <10 cfu/ml | antimicrobial efficacy across strains and formulatory supports [8]: efficient irrespective of the strain and of the support | Number of cfu counted after strain/solution contact time, Candida albicans ([9]; contact time 0 hours): 2.9 × 10^6 cfu/ml | Number of cfu counted after strain/solution contact time, Candida albicans ([9]; contact time 6 hours): 2.9 × 10^2 cfu/ml | Number of cfu counted after strain/solution contact time, Candida albicans ([9]; contact time 24 hours): <10 cfu/ml | Number of cfu counted after strain/solution contact time, Candida albicans ([9]; contact time 48 hours): <10 cfu/ml | Number of cfu counted after strain/solution contact time, Candida albicans ([9]; contact time 72 hours): <10 cfu/ml | Number of cfu counted after strain/solution contact time, Candida albicans ([9]; contact time 168 hours): <10 cfu/ml
